# Measured values: patent US20240075005A1 (LIGALLI BV, priority 2021, published 2024)
# “And” between values parts separate entries of the source, which are not always exact repeats. Equal values may be shown once.
# Assay: Pharmacokinetic trial: single 3 mg intravaginal dose of oxybutynin HCl delivered by the MedRing vaginal ring, plasma LC/MS/MS
# Type: in vivo, human (female subjects)
# Source text: This trial investigated the feasibility of pulsed intra-vaginal delivery of oxybutynin and explored systemic exposure after application via the MedRing device.
# The trial included female subjects of childbearing potential (women of childbearing potential, WOCBP) aged between 18 and 45 years (inclusive) and female postmenopausal subjects aged between 50 and 69 years (inclusive); Postmenopausal status is defined as age≥50 years and having >12 months amenorrhoea in the absence of hormonal therapy that may cause amenorrhoea.
# Subjects began a 4-hour pre-dose fasting period before arriving to the clinic until 2 hours post-dose. Upon arrival, the subjects underwent pre-dose measurements to re-confirm eligibility for the study and to perform baseline measurements. The MedRing was inserted intra-vaginally by medically trained personnel. Water was allowed ad libitum. Subjects underwent blood sampling throughout the day. The MedRing was removed by medical study personnel 2 hours post dose in the first cohort. The MedRing was removed by medical personnel 6 hours post dose in the second cohort. The subjects went home approximately 8 hours post dose. The following day, the subjects of the second cohort returned to the clinic for an ambulant blood sample.
# Plasma samples were also used for assessment of the concentrations of the metabolite, N-desethyloxybutynin.
SMILES,"Area under the concentration-time curve to infinity (AUCinf) in plasma, mean (±SD) (3 mg oxybutynin HCl intravaginal via MedRing)","t1/2, mean (±SD) (3 mg oxybutynin HCl intravaginal via MedRing, plasma)","tmax, median (min-max) (3 mg oxybutynin HCl intravaginal via MedRing, post dose, plasma)","Cmax in plasma, mean (±standard deviation) (3 mg oxybutynin HCl intravaginal via MedRing, single dose, 8 female subjects)",plasma concentrations relative to known safety window (intravaginal via MedRing),"plasma levels after 22 hours (second cohort (MedRing in situ 6 hours), 22-hour sample)","AUC(0-inf) (female, human, in vivo, 3 mg)","Cmax (female, human, in vivo, 3 mg)","Tmax (female, human, in vivo, 3 mg)","half-life (female, human, in vivo, 3 mg)","t1/2, mean (±SD) (female, human, in vivo, 3 mg)","tmax, median (min-max) (female, human, in vivo, 3 mg)","plasma levels after 22 hours (female, human, in vivo, 22 h)"
CCNCC#CCOC(=O)C(O)(c1ccccc1)C1CCCCC1 (stereo not shown) [N-desethyloxybutynin],51.1 (±43.1),7.7 h,4 hours and 4 (3-5) hours,3.9 ng/mL,well within the known safety window,found in all 4 subjects,–,–,–,–,–,–,–
CCN(CC)CC#CCOC(=O)C(O)(c1ccccc1)C1CCCCC1 (stereo not shown) [oxybutynin],–,–,–,–,–,–,34.9 ng·h/mL,5.4 ng/mL,2 h,8.5 h,8.5 (±3.5) hours,2 (1-5) hours,found in all 4 subjects
